As usually defined, the pEC50 is the negative decadic logarithm of the EC50, by convention in mol/L. For orientation: EC50 means the concentration needed to bring the measured effect to its halfway point.

The record followed here is PubChem BioAssay AID466 (The Scripps Research Institute Molecular Screening Center, 2006).

pEC50: −log10 of the molar value. Calls of active or inactive are those of the source. How the calls were made is not given here. Where only a bound is given, the exact number is not on record here.

The target of this experiment is Sphingosine 1-phosphate receptor 1 (Homo sapiens) (UniProt P21453). The experiment is described as follows: potentiators of S1P1 agonist response, dose response, cell-based, potentiator mode, 60K MLSMR set (AID 466). As to conditions: S1P1 cell assay, potentiation of agonist response.
Sequence of Sphingosine 1-phosphate receptor 1 (Homo sapiens) (P21453 whole entry, looked up): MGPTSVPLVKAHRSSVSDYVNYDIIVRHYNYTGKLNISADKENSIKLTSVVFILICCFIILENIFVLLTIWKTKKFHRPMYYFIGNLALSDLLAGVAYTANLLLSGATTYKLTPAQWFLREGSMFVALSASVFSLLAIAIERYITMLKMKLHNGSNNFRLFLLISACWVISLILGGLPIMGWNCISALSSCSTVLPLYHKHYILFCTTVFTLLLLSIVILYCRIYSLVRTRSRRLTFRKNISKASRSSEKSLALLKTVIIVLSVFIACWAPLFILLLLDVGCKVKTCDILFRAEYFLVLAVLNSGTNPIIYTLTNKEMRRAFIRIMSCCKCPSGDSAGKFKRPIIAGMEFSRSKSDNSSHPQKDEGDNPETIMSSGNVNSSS
For `CC(C)c1ccc2oc(-c3cc(N)ccc3O)nc2c1`, the pEC50 was 5.03.

Regarding `C/C(N)=C(/C#N)C(=O)CSc1nc2cc(Cl)ccc2s1`, the EC50 result was “inactive”.

In the case of `O=C1C2C3C=CC(CO)(O3)C2C(=O)N1c1ccccc1-c1ccccc1` (stereo not given), the negative-log EC50 (pEC50) is 5.17.

Consider `COc1ccc(N=c2scc(-c3ccc(S(=O)(=O)N4CCOCC4)cc3)n2CCCO)cc1`, for which the EC50 result was “inactive”.

As to `CCCCc1ccc(C2C(C#N)=C(N)SC(N)=C2C#N)s1`, the EC50 result was “inactive”.

As for `Cc1[nH]nc2c1C1(C(=O)N(Cc3ccc(Cl)cc3)c3ccccc31)C(C#N)=C(N)O2` (stereo not given), the EC50 entry is “inactive”.

Take `Cc1ccc2[nH]c3c(N4CCCCCC4)ncnc3c2c1`: the pEC50 is 5.38.

On to `CCC(=NC(C)c1ccccc1)c1c(O)n(C)c(=O)n(C)c1=O` (stereo not given), for which the EC50 result is “inactive”.

Turning to `Cc1nn(Cc2ccc(Cl)c(Cl)c2)c(C)c1NC(=O)c1cc(C2CC2)on1`, the EC50 entry is “inactive”.

In the case of `CC1=C(C(=O)OCc2ccc3c(c2)OCO3)C(c2ccc(F)cc2)NC(=O)N1` (stereo not given), the negative-log EC50 (pEC50) is 6.20.

Turning to `CC(C)c1ccc(OCc2nc(-c3ccccn3)no2)c(Br)c1`, the negative logarithm of the EC50 (pEC50) is 5.35.

Take `FC(F)(F)c1ccc(N2CCN(c3cc(-c4ccccc4)nc4ncnn34)CC2)nc1`: the EC50 result was “inactive”.

For the compound `CCOC(=O)C1CCN(c2ncnc3c2oc2ccccc23)CC1`, the EC50 entry was “inactive”.

For `Cc1ccc(NC(=O)c2cc(-c3ccco3)on2)cc1C`, the pEC50 was 5.30.

In the case of `COC(=O)CC1SC(=O)NC1=Nc1ccccc1` (stereo not given), the EC50 was > 95 µM (inactive).

Consider `CC(C)Cn1c(N)c(C(=O)CSc2ccc3c(c2)OCCO3)c(=O)n(C)c1=O`, for which the EC50 result is “inactive”.

Take `O=C(C1CCN(S(=O)(=O)c2cccc3cccnc23)CC1)N1CCN(c2ccc(Cl)cc2)CC1`: the EC50 entry was “inactive”.

Regarding `COc1ccc(/C(O)=C2/C(=O)C(=O)N(CC3CCCO3)C2c2cccc(OC)c2)cc1` (stereo not given), the EC50 was > 95 µM (inactive).

As for `Cc1cc(N2CCOCC2)nc(NCc2ccccc2)n1`, the EC50 result is “inactive”.

`CCOc1ccc(C(C)=O)cc1N1C(=O)C2C3C=CC(O3)C2C1=O` (stereo not given): the EC50 result was “inactive”.

Regarding `COc1ccc(/C=N/O)cc1COc1ccc(NC(C)=O)cc1`, the EC50 was > 95 µM (inactive).

`CCC(=NCCOc1ccc(Cl)cc1)c1c(O)n(C)c(=O)n(C)c1=O`: the negative logarithm of the EC50 (pEC50) is 5.27.

With `c1ccc2c(c1)CCN(c1ncnc3c1[nH]c1ccccc13)C2`, the pEC50 was 5.93.

On to `CC(=O)Oc1ccc(N2C(=O)C3C(C2=O)C2(C)C=CC3(C)O2)cc1` (stereo not given), for which the EC50 entry is “inactive”.

Take `CNc1oc(-c2ccc(OCc3ccccc3)cc2)nc1C#N`: the negative logarithm of the EC50 (pEC50) was 5.49.

`Cn1nc(CC(=O)Nc2ccc3c(c2)OCCO3)c2ccccc2c1=O`: the negative logarithm of the EC50 (pEC50) was 5.23.

On to `CCC(=NCc1ccc2c(c1)OCO2)c1c(O)n(C2CCCCC2)c(=O)[nH]c1=O`, for which the pEC50 was 5.06.

Turning to `CC1(C)CC(=O)C(C=Nc2ccc3[nH]ncc3c2)=C(O)C1`, the negative-log EC50 (pEC50) is 5.22.

For the compound `CC(=O)c1ccc(NC(=O)N2CCN(c3cccc(Cl)c3)CC2)cc1`, the pEC50 is 5.01.

As to `C/C(N)=C(/C#N)C(=O)CSc1nnc(SCc2ccc(Cl)cc2)s1`, the pEC50 is 5.02.

Regarding `CCOC(=O)c1cccc2c1-c1ccccc1/C2=N/O`, the EC50 entry is “inactive”.

Take `CC1=C(C(=O)OCc2ccc3c(c2)OCO3)C(c2ccccc2)NC(=O)N1` (stereo not given): the pEC50 was 5.47.

As to `Cc1nn(Cc2ccc(Cl)c(Cl)c2)c(C)c1NC(=O)c1cc(-c2ccco2)on1`, the pEC50 is 5.25.

As for `NC(=O)c1ccc(OCC(F)(F)C(F)(F)C(F)(F)C(F)(F)C(F)(F)C(F)F)cc1`, the pEC50 is 5.10.

For the compound `COc1ccc(N2C(=O)CC(Sc3ncn[nH]3)C2=O)c(OC)c1` (stereo not given), the EC50 result is “inactive”.
